According to paper PMC3492916 (Molecular Nutrition & Food Research, 2011):
“Also recorded” adds a separate entry of the source.

Key:
[1] = molecular target: P-glycoprotein (Sus scrofa, UniProt K7GMM7); assay: Active transport study with inhibitor PSC 833; assay type: in vitro ADME, porcine
[2] = Permeability across PBCEC monolayers on Transwell filters; settings: pig
[3] = system: PBCEC monolayers; assay: as above; settings: apical addition; for Time of maximum of permeation into basolateral compartment / Maximum of permeation into basolateral compartment: EM and ET 10 μM, EC 1 μM; for Maximum of permeation into basolateral compartment: t = 0 h as 100%
[4] = cited from earlier work
[5] = system: PBCEC; assay: Cytotoxicity; assay type: cell-based, porcine; settings: 24 h; for Impact on cell viability (CCK-8 assay): up to a concentration of 20 mM (so in the source), with corresponding -inine form
[6] = system: Pgp; settings: cited from earlier work
[7] = system: PBCEC monolayers; assay: Active transport study, equal concentrations in both compartments; settings: for Enrichment of substance concentration in one compartment: ET 10 μM, EC 1 μM a/b, over 48 h
[8] = system: PBCEC monolayer; assay: TEER measurement; assay type: cell-based, porcine; settings: for Influence on barrier integrity (TEER): 10 μM (a) or 10 μM (a/b), in comparison to the control
[9] = molecular target: T1, BCRP/ABCG2 (Sus scrofa, UniProt Q8MIB3); assay: Active transport study with inhibitor Fumitremorgin C; assay type: in vitro ADME, porcine
T1 sequence (Q8MIB3 1-656): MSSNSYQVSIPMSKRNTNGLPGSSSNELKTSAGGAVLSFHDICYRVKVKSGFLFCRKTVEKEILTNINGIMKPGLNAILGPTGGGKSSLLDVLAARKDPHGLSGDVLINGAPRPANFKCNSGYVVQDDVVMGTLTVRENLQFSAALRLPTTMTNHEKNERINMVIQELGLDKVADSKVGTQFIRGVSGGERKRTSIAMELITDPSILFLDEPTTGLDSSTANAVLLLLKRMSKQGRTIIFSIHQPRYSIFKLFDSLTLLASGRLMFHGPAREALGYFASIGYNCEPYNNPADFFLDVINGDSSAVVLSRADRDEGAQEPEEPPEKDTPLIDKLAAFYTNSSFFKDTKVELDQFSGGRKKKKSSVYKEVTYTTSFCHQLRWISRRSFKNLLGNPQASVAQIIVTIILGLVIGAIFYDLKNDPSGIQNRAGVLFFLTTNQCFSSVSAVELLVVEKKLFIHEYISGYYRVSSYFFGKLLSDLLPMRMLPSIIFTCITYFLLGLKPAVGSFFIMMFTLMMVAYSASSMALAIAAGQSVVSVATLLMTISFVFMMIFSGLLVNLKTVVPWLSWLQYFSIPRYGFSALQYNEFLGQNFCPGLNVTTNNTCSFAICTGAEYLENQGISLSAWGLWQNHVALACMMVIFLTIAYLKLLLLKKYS

[10] = system: PBCEC; assay: Fluorescence microscopy of occludin and cell nuclei; assay type: cell-based, porcine; settings: 10 μM a/b, 24 h
[11] = Active transport study, equal concentrations in both compartments; settings: pig, PBCEC monolayers
[12] = system: Caco-2; settings: Caco-2 model, after 6 h; cited from earlier work
[13] = 10 μM inhibitor a/b, preincubated 1 h, EM 10 μM a/b

P-glycoprotein, sequence (K7GMM7 1-1248): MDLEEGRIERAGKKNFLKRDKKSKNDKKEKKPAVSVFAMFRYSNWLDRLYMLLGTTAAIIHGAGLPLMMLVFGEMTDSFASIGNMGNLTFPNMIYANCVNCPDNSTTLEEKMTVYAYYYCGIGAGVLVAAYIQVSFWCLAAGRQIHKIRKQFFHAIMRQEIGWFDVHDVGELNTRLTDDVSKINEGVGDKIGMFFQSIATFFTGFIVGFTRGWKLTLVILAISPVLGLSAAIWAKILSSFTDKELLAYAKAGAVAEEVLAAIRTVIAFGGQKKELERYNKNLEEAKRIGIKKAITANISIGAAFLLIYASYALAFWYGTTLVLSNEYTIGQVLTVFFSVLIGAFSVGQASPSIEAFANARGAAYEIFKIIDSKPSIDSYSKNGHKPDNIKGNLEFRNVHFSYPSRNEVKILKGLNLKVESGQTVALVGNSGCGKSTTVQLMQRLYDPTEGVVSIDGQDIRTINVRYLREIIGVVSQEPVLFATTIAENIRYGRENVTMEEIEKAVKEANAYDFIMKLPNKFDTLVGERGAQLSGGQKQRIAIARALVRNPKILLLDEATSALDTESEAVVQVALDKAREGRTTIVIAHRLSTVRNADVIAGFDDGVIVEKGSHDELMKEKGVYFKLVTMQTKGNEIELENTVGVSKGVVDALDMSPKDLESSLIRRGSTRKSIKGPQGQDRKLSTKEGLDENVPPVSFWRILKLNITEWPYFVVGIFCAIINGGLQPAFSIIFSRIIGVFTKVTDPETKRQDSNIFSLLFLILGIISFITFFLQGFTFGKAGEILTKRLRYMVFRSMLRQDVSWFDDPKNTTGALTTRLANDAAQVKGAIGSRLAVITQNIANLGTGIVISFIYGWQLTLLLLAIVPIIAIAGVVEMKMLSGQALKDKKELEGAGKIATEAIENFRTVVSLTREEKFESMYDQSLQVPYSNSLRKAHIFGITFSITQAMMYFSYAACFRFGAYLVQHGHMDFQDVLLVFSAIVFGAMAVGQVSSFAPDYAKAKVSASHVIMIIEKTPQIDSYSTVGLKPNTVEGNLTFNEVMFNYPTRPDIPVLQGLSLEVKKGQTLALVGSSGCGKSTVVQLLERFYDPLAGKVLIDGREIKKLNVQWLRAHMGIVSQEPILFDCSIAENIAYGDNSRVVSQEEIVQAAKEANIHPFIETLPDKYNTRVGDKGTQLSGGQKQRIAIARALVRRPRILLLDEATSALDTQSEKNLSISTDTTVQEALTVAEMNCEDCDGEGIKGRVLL

For `C/C=C/C[C@@H](C)C(=O)[C@H]1C(=O)N[C@@H](C(C)C)C(=O)N(C)CC(=O)N(C)[C@@H](CC(C)C)C(=O)N[C@@H](C(C)C)C(=O)N(C)[C@@H](CC(C)C)C(=O)N[C@@H](C)C(=O)N[C@H](C)C(=O)N(C)[C@@H](CC(C)C)C(=O)N(C)[C@@H](CC(C)C)C(=O)N(C)[C@@H](C(C)C)C(=O)N1C` [PSC, PSC 833], the “Influence of inhibitor on the transport of EM” value [1, 13] was “lagging of enrichment in the apical compartment”.
In the case of `CN1C[C@H](C(=O)N[C@]2(C)O[C@@]3(O)[C@@H]4CCCN4C(=O)[C@H](Cc4ccccc4)N3C2=O)C=C2c3cccc4[nH]cc(c34)C[C@H]21` [ET, ergotamine], the Papp A→B [2] is reported as 11.9 ×10⁻⁶ cm/s, the Papp B→A [2] is reported as 18 ×10⁻⁶ cm/s and the efflux ratio at 24 h, 10 μM [2] is reported as less than 2. For the same compound, the “Time of maximum of permeation into basolateral compartment” value [3] was 12 h, the “Maximum of permeation into basolateral compartment” value [3] was 40% and the “Detection in CSF” value ([4]; 18 patients, different application methods) was “no ergotamine in CSF”. The Oral bioavailability ([4]; humans, peptide ergot alkaloids like ergotamine) was “less than 2%”, the “Concentration in cerebrospinal fluid (CSF)” value ([4]; ten patients) was 0.4 ng/mL and the “Impact on cell viability (CCK-8 assay)” value [5] was “no impact”. The Pgp inhibition [6] was “Pgp inhibitors”, the “Enrichment of substance concentration in one compartment” value [7] was “no enrichment” and the “Influence on barrier integrity (TEER)” value ([8]; 1 μM (a), 24 h) was “No influence; also recorded: no impact on barrier integrity”.
In the case of `C[C@@H](CO)NC(=O)[C@@H]1C=C2c3cccc4[nH]cc(c34)C[C@H]2N(C)C1` [EM, ergometrine], the Papp A→B [2] is reported as 1.05 ×10⁻⁶ cm/s, the Papp B→A [2] is reported as 6.05 ×10⁻⁶ cm/s and the “Time before which first traces were not detectable in basolateral compartment” value ([3]; 10 μM) is reported as no less than 6 h. The “Time of maximum of permeation into basolateral compartment” value [3] was 24 h, the “Maximum of permeation into basolateral compartment” value [3] was 29% and the Transporter substrate property ([9]; concluded from total inhibition by FTC) was “substrate for BCRP/ABCG2 transporter”. For the same compound, the “Impact on cell viability (CCK-8 assay)” value [5] was “no impact”, the Pgp inhibition [6] was “Pgp inhibitors” and the “Concentration in apical compartment, % of the initial concentration” value ([7]; 10 μM a/b, after 24 h) was “about 117%”. The “Total enrichment in apical compartment” value ([7]; 10 μM a/b, after 48 h) was 130%, the “Substance in cell lysate” value ([7]; 10 μM a/b, during the whole experiment (48 h)) was “no EM was detectable in cell lysate” and the “Influence on barrier integrity (TEER)” value ([8]; 1 μM (a), 24 h) was “No influence; also recorded: no impact on barrier integrity”. For the same compound, the “Concentration in apical compartment, % of the initial concentration” value ([1]; EM 10 μM a/b with PSC 833 10 μM a/b, after 48 h) was 110%.
For `CC(C)[C@@]1(NC(=O)[C@@H]2C=C3c4cccc5[nH]cc(c45)C[C@H]3N(C)C2)O[C@@]2(O)[C@@H]3CCCN3C(=O)[C@H](Cc3ccccc3)N2C1=O` [EC, ergocristine], the “Immunostaining of occludin and cell nuclei” value [10] was “disrupted cells could be visualized by the absence of nuclei”, the Papp A→B [2] was 20.5 ×10⁻⁶ cm/s and the Papp B→A [2] was 26.1 ×10⁻⁶ cm/s. For the same compound, the “Concentration in basolateral compartment” value ([3]; 1 μM, after 24 h) was 32%, the “Time of maximum of permeation into basolateral compartment” value [3] was 6 h and the “Maximum of permeation into basolateral compartment” value [3] was 49%. For the same compound, the “Concentration at which significant differences in cell viability start” value ([5]; CCK-8) was 5 µM, the “Concentration at which significant results in cell viability start” value ([5]; CCK-8, Figure 2 legend) was 5000 µM and the “Cell viability (CCK-8 assay)” value ([5]; from 5 μM, in equilibrium with -inine form) was 85 % of the control. The recovery at 48 h, 1 µM [11] was 60%, the “Enrichment of substance concentration in one compartment” value [7] was “no enrichment” and the “Effect on barrier integrity (TEER)” value ([8]; 1 μM (a)) was “no effect”. For the same compound, the “TEER, % of initial TEER” value ([8]; 1 μM (a/b)) was “about 80%”, the “TEER, % of initial TEER” value ([8]; 5 μM (a)) was “about 80%” and the “TEER, % of the starting value” ([8]; 5 μM (a/b)) was 50–70%. The “TEER, % of the starting value” ([8]; 5 μM (b)) was 50–70%, the “TEER, % of the starting value” ([8]; 10 μM (a)) was 50–70% and the “TEER, % of the starting value” ([8]; 10 μM (b)) was 50–70%. For the same compound, the “TEER of incubated samples” value ([8]; 10 mM (so in the source) a/b, 24 h, samples of immunostaining, control >1000) was < 200 Ωcm^2.
For ergovaline/ ergovalinine, the “Initial concentration reaching the other compartment” value [12] is given as 40%.
With `COc1ccc2c3c([nH]c2c1)[C@H](C=C(C)C)N1C(=O)[C@@H]2CCCN2C(=O)[C@@H]1C3` [FTC, Fumitremorgin C] the “Influence of inhibitor on the transport of EM” value [9, 13] was “total inhibition of the transport process”.
